Assays:
[1] = tested on: Mouse macrophages; experiment: Metabolites on LPS-stimulated TNFα/IL-6 production, mouse macrophages; assay type: cell-based; settings: 10 or 50 μM, 16 hours pre-treatment, 200 ng/mL LPS 3 hours, ELISA
Protocol: (§1) FIG. 5A-C. Bacteria metabolites (MQ, JE, and NC) reduce expression of pro-inflammatory cytokines. Mouse macrophages cells, (FIG. 5A, FIG. 5B) Human Corneal Epithelial Cells (FIG. 5C) or THP-1 macrophages (FIG. 5D) were pre-treated with either 10 μM (3.5 μg/mL), 50 μM (17 μg/mL) of JE, 10UM (4.9 μg/mL), 50 μM (24 μg/mL) of MQ or combination of both for 16 hours, followed by 200 ng/mL of LPS to Mouse macrophages/THP1 cells, and 100 ng/ml of Flagellum to HCECs for 3 hours. The supernatants were collected and TNFα, IL-6 concentration was measured by ELISA. *, P<0.05, **. P<0.01, ***, P<0.001.
(§2) Next, the metabolites were tested individually to assess their regulatory effects on mouse macrophages and human THP-1 macrophages. Similar to the bacterial <10 kD supernatant fraction, both JE and MQ inhibited LPS-stimulated macrophage production of TNFa and IL-6 (FIG. 5), indicating it suppresses TLR4 agonist-induced production of pro-inflammatory cytokines by macrophages.
(§3) Cell Culture: Multiple macrophage cell lines were used in these experiments. Primary murine BMDMs were differentiated through isolation and treatment with L929 conditioned medium. C57BL/6 macrophages and BMDMs were seeded in complete DMEM (10% FBS+1% Penicillin-Streptomycin) in 24-well plates at concentrations of 5×10^5 and 2.5×10^5, respectively. THP-1 cells were maintained and grown in complete RPMI-1640 medium. Cells were differentiated by stimulating with PMA (100 nM) for three hours at 37° C. with 5% CO-2 until adherent. They were then collected and plated at a density of 2.5×10^5 cells per well in 24-well plates with serum-free RPMI and incubated overnight.

[2] = tested on: THP-1 macrophages; experiment: Metabolites on LPS-stimulated TNFα/IL-6 production, THP-1 macrophages; assay type: cell-based, human; settings: for IL-6 expression (FIG. 6): 10 μM JE, 10 μM MQ, 50 μM NC or combinations, 16 hours, 200 ng/ml LPS three hours; for LPS-stimulated macrophage production of IL-6 / LPS-stimulated macrophage production of TNFa: 10 or 50 μM, 16 hours pre-treatment, 200 ng/mL LPS 3 hours, ELISA
Protocol: as §1
FIG. 6. Bacteria metabolites (MQ, JE, and NC) reduce IL-6 expression. THP-1 macrophages were pre-treated with either 10 μM (3.5 μg/mL) of JE, 10 μM (4.9 μg/mL) of MQ or 50UM of NC or different combinations of all three for 16 hours, followed by 200 ng/ml of LPS for three hours. Supernatants were collected and IL-6 concentration was measured by ELISA. **. P<0.01.
as §2, §3

[3] = tested on: NLRP3 inflammasome; experiment: Metabolites on IL-1β production after LPS priming and ATP, murine macrophages; assay type: cell-based, mouse; settings: 10 or 50 μM 16 hours, 200 ng/ml LPS three hours, 5 mM ATP one hour
Protocol: (§4) FIG. 7A-7B. Bacteria metabolites (MQ and JE) reduce IL-1β expression. Murine macrophages, (FIG. 7A) or THP-1 macrophages (FIG. 7B) were pre-treated with either 10 μM (3.5 μg/mL), 50 μM (17 μg/mL) of JE, 10 μM (4.9 μg/mL), 50 μM (24 μg/mL) of MQ or combination of both for 16 hours. Macrophages were primed with 200 ng/ml of LPS for three hours, followed by inflammasome activation with 5 mM ATP for one hour. Supernatants were collected, IL-1B was measured by ELISA. ***, P<0.001
as §2

[4] = tested on: NLRP3 inflammasome; experiment: Metabolites on IL-1β production after LPS priming and ATP, THP-1 macrophages; assay type: cell-based, human; settings: 10 or 50 μM 16 hours, 200 ng/ml LPS three hours, 5 mM ATP one hour
Protocol: as §4, §2

[5] = tested on: CACO-2 epithelium cells / B6 Macrophages; experiment: CACO-2 trans-well system with macrophages in lower well, metabolites JE, MQ, NC; assay type: cell-based; settings: for ability to cross the tight junctions of epithelial cells: 50 μM in upper well on CACO-2 cells, overnight; for TNFα production by cells in lower chamber: 50 μM in upper well overnight, 200 ng/ml LPS 3 hours
Protocol: FIG. 8A-8B. The assessment of the permeability of the differentiated CACO-2 epithelium cells after the treatment of JE, MQ, and NC in trans-well system. (FIG. 8A) CACO-2 cells were seeded in the upper well, and B6 Macrophages were placed into the lower well. 50UM of JE, MQ, NC, or combination of all three was added to CACO-2 cells in the upper well. Samples and controls were incubated overnight at 37° C., 5% CO2, followed by the addition of 200 ng/ml LPS to the upper and lower wells for 3 hours (Left: lower chambers, right: upper chambers). Cell culture supernatants were collected and an ELISA was used to measure TNFα or IL-6 concentrations. (FIG. 8B) FitC-dextrans (4 KDa) were added into the upper chamber simultaneously as the sample tests were added. A high concentration of hydrochloric acid (HCl) as a control was added to the upper chamber to disrupt the tight junctions. FitC-dextran collected from the bottom chamber was measured by a fluorescence spectrometer (excitation, 490 nm; emission, 520 nm). Data shown are representative mean±s.d. (***, p<0.001, **, p<0.01).
As stated before, commensal bacteria are non-invading and the metabolites must be able to cross the epithelium to mediate their functions and our earlier data confirmed <10 kD fraction pertained this ability. Therefore, we used the trans-well system to test if the identified metabolites were able to cross the epithelium. As we did previously, Caco-2 cells were culture for 2 weeks, to allow tight junctions to form. While the lower chamber contained C57BL/6 mouse BMDMs. We then measured the ability for NC, MQ and JE to cross the tight junctions without disrupting the integrity of the tight junctions. We did each separately and combined as well.

Compound	LPS-stimulated macrophage production of IL-6 [1]	LPS-stimulated macrophage production of TNFa [1]	IL-6 expression (FIG. 6) [2]	LPS-stimulated macrophage production of IL-6 [2]	LPS-stimulated macrophage production of TNFa [2]	IL-β production stimulated by LPS and ATP [3]	IL-β production stimulated by LPS and ATP [4]	ability to cross the tight junctions of epithelial cells [5]	TNFα production by cells in lower chamber [5]
Prednicarbate [MQ]	inhibited	inhibited	reduce	inhibited	inhibited	inhibited	inhibited	can pass through	suppress
CCCCCCCCCCCCCCCC(=O)N[C@@H](C(=O)O)[C@H](C)O [NC, N-Palmitoyl-D-Threonine]	–	–	reduce	–	–	–	–	can pass through	suppress
CC(=O)O[C@@H]1CC[C@H]2[C@H]3CC[C@H]4CC(F)(F)CC[C@]4(C)[C@H]3CC[C@]12C [JE, 3,3-Difluoro-5-alpha-androstan-17-beta-yl acetate]	inhibited	inhibited	reduce	inhibited	inhibited	inhibited	inhibited	–	suppress

Reference: US20250000874A1, “BACTERIAL METABOLITES AND THEIR USE IN REDUCING INFLAMMATION” (LOYOLA UNIVERSITY OF CHICAGO, priority 2023, published 2025)
